Each molecule was assayed on PBMC (T cell proliferation) (assay: T cell proliferation assay, PHA-stimulated human PBMC (BrdU ELISA)). Settings: PHA-stimulated human PBMC, 48 hours, BrdU; column D; activity classes 1-4; read-out: IC50 (Tcell proliferation).
Type: cell-based
Method in brief: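 Healthy-donor human PBMC, Ficoll-isolated, seeded 1×10^5 cells/well in RPMI1640 with 10% dialyzed FCS, stimulated with 2 μg/ml PHA alongside test compound. Proliferation read after 48 hours by BrdU ELISA.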

| SMILES | IC50 |
| --- | --- |
| Fc1cccc(-n2ncc(-c3onc(-c4c(F)cccc4Cl)c3-c3ccccc3)c2C(F)(F)F)c1 [Example I-14, 3-(2-chloro-6-fluorophenyl)-5-(1-(3-fluorophenyl)-5-(trifluoromethyl)-1H-pyrazol-4-yl)-4-phenylisoxazole] | 0.1 to 1 µM |
| CC(C)Cn1ncc(-c2onc(-c3c(F)cccc3Cl)c2-c2nnn[nH]2)c1C(F)(F)F [Example I-1, 3-(2-chloro-6-fluorophenyl)-5-(1-isobutyl-5-(trifluoromethyl)-1H-pyrazol-4-yl)-4-(1H-tetrazol-5-yl)isoxazole] | 1 to 10 µM |
| Cc1nnc(-c2c(-c3c(F)cccc3Cl)noc2-c2cnn(-c3ccccn3)c2C(F)(F)F)o1 [IB-26, 2-(3-(2-chloro-6-fluorophenyl)-5-(1-(pyridin-2-yl)-5-(trifluoromethyl)-1H-pyrazol-4-yl)isoxazol-4-yl)-5-methyl-1,3,4-oxadiazole] | 0.1 to 1 µM |
| Cc1nnc(-c2c(-c3c(F)cccc3Cl)noc2-c2cnn(-c3cccc(Cl)c3)c2C(F)(F)F)s1 [IB-3, 3-(2-chloro-6-fluorophenyl)-5-(1-(3-chlorophenyl)-5-(trifluoromethyl)-1H-pyrazol-4-yl)-4-(5-methyl-1,3,4-thiadiazol-2-yl)isoxazole] | < 0.01 µM |

Same assay, conditions: human PBMC, 2 μg/ml PHA, 48 hours, BrdU; read-out: D: IC50 (Tcell proliferation)

| SMILES | IC50 |
| --- | --- |
| CCOC(=O)c1c(-c2c(F)cccc2Cl)noc1-c1cnn(-c2cccc([N+](=O)[O-])c2)c1C(F)(F)F [Example B-90, ethyl 3-(2-chloro-6-fluorophenyl)-5-(1-(3-nitrophenyl)-5-(trifluoromethyl)-1H-pyrazol-4-yl)isoxazole-4-carboxylate] | 0.01 to 0.1 µM |
| O=C(c1c(-c2c(F)cccc2Cl)noc1-c1cnn(-c2ccccc2F)c1C(F)(F)F)N1CCCO1 [Example B-52, (3-(2-chloro-6-fluorophenyl)-5-(1-(2-fluorophenyl)-5-(trifluoromethyl)-1H-pyrazol-4-yl)isoxazol-4-yl)(isoxazolidin-2-yl)methanone] | 1 to 10 µM |
| Fc1ccc(-n2ncc(-c3onc(-c4c(F)cccc4Cl)c3Br)c2C(F)(F)F)cc1 [Example B-28, 4-bromo-3-(2-chloro-6-fluorophenyl)-5-(1-(4-fluorophenyl)-5-(trifluoromethyl)-1H-pyrazol-4-yl)isoxazole] | 0.1 to 1 µM |
| COC(=O)c1c(-c2ccccc2)noc1-c1cnn(-c2cccc(Cl)c2)c1C(F)(F)F [Example B-30, methyl 5-(1-(3-chlorophenyl)-5-(trifluoromethyl)-1H-pyrazol-4-yl)-3-phenylisoxazole-4-carboxylate] | 0.1 to 1 µM |
| CCOC(=O)c1c(-c2c(F)cccc2Cl)noc1-c1cnn(CC2CCOCC2)c1C(F)(F)F [Example B-81, ethyl 3-(2-chloro-6-fluorophenyl)-5-(1-((tetrahydro-2H-pyran-4-yl)methyl)-5-(trifluoromethyl)-1H-pyrazol-4-yl)isoxazole-4-carboxylate] | 0.1 to 1 µM |
| CCOC(=O)c1c(-c2ccc(Cl)cc2)noc1-c1cnn(-c2cccc(Cl)c2)c1C(F)(F)F [Example 77, ethyl 3-(4-chlorophenyl)-5-(1-(3-chlorophenyl)-5-(trifluoromethyl)-1H-pyrazol-4-yl)isoxazole-4-carboxylate] | 1 to 10 µM |
| CCOC(=O)c1c(-c2ccncc2F)noc1-c1cnn(-c2cccc(Cl)c2)c1C(F)(F)F [Example B-4, ethyl 5-(1-(3-chlorophenyl)-5-(trifluoromethyl)-1H-pyrazol-4-yl)-3-(3-fluoropyridin-4-yl)isoxazole-4-carboxylate] | 1 to 10 µM |
| CNC(=S)c1c(-c2c(F)cccc2Cl)noc1-c1cnn(-c2ccc(F)cc2)c1C(F)(F)F [Example 76, 3-(2-chloro-6-fluorophenyl)-5-(1-(4-fluorophenyl)-5-(trifluoromethyl)-1H-pyrazol-4-yl)-N-methylisoxazole-4-carbothioamide] | 1 to 10 µM |
| CCOC(=O)c1c(-c2onc(-c3c(F)cccc3Cl)c2C(=O)OC)cnn1CC(C)C [Example 29] | 1 to 10 µM |
| CCOC(=O)c1c(-c2ccncc2F)noc1-c1cnn(-c2ccncc2)c1C(F)(F)F [Example B-3, ethyl 3-(3-fluoropyridin-4-yl)-5-(1-(pyridin-4-yl)-5-(trifluoromethyl)-1H-pyrazol-4-yl)isoxazole-4-carboxylate] | 0.1 to 1 µM |
| CCOC(=O)c1c(-c2c(F)cccc2Cl)noc1-c1cnn(-c2ccccc2[N+](=O)[O-])c1C(F)(F)F [Example B-95, 3-(2-chloro-6-fluorophenyl)-5-(1-(2-nitrophenyl)-5-(trifluoromethyl)-1H-pyrazol-4-yl)isoxazole-4-carboxylate] | 0.1 to 1 µM |
| O=C(c1c(-c2c(F)cccc2Cl)noc1-c1cnn(-c2ccccc2F)c1C(F)(F)F)N1CCN(Cc2cccc(Cl)c2)CC1 [Example 24, (3-(2-chloro-6-fluorophenyl)-5-(1-(2-fluorophenyl)-5-(trifluoromethyl)-1H-pyrazol-4-yl)isoxazol-4-yl)(4-(3-chlorobenzyl)piperazin-1-yl)methanone] | 0.1 to 1 µM |
| CCOC(=O)c1c(-c2ccccc2F)noc1-c1cnn(-c2cccc(Cl)c2)c1C(F)(F)F [Example B-47, ethyl 5-(1-(3-chlorophenyl)-5-(trifluoromethyl)-1H-pyrazol-4-yl)-3-(2-fluorophenyl)isoxazole-4-carboxylate] | 0.01 to 0.1 µM |
| CCOC(=O)c1c(-c2ccncc2F)noc1-c1cnn(-c2cccc(F)c2)c1C(F)(F)F [Example B-14, ethyl 5-(1-(3-fluorophenyl)-5-(trifluoromethyl)-1H-pyrazol-4-yl)-3-(3-fluoropyridin-4-yl)isoxazole-4-carboxylate] | 1 to 10 µM |
| O=C(NC1CCCCC1)c1c(-c2c(F)cccc2Cl)noc1-c1cnn(-c2ccccc2F)c1C(F)(F)F [Example 18, 3-(2-chloro-6-fluorophenyl)-N-cyclohexyl-5-(1-(2-fluorophenyl)-5-(trifluoromethyl)-1H-pyrazol-4-yl)isoxazole-4-carboxamide] | 1 to 10 µM |
| COC(=O)c1c(-c2c(F)cccc2Cl)noc1-c1cnn(-c2cccc(NC(C)=O)c2)c1C(F)(F)F [Example B-89, 5-(1-(3-acetamidophenyl)-5-(trifluoromethyl)-1H-pyrazol-4-yl)-3-(2-chloro-6-fluorophenyl)isoxazole-4-carboxylate] | 0.1 to 1 µM |
| CON(C)C(=O)c1c(-c2c(F)cccc2Cl)noc1-c1cnn(-c2ccccc2F)c1C(F)(F)F [Example B-53, 3-(2-chloro-6-fluorophenyl)-5-(1-(2-fluorophenyl)-5-(trifluoromethyl)-1H-pyrazol-4-yl)-N-methoxy-N-methylisoxazole-4-carboxamide] | 0.1 to 1 µM |
| CCOC(=O)c1c(-c2c(Cl)cncc2Cl)noc1-c1cnn(-c2ccccc2F)c1C(F)(F)F [Example B-9, ethyl 3-(3,5-dichloropyridin-4-yl)-5-(1-(2-fluorophenyl)-5-(trifluoromethyl)-1H-pyrazol-4-yl)isoxazole-4-carboxylate] | 0.01 to 0.1 µM |
